Experimental data from US20220022457A1, “Microbicide Ammonium-Imidazolium Oligomers and Their Anti-Fungal Compositions” (AGENCY FOR SCIENCE, TECHNOLOGY AND RESEARCH, priority 2018, published 2022).
≈ marks a conversion by molar mass, not a printed value.

Key:
[1] = Critical micelle concentration; type: physicochemical
[2] = tested on: C. albicans; type: cell-based, Candida albicans
[3] = tested on: Pseudomonas aeruginosa (ATCC 9027, Gram-negative); experiment: Minimum inhibitory concentration, microdilution assay; type: cell-based; conditions: 24 h, lowest concentration with no visible growth
Protocol: (§1) Staphylococcus aureus (ATCC 6538, Gram-positive), Escherichia coli (ATCC 8739, Gram-negative), Pseudomonas aeruginosa (ATCC 9027, Gram-negative), and Candida albicans (ATCC 10231, fungus) were used as representative microorganisms to challenge the antimicrobial functions of the oligomers. All bacteria and fungus were frozen at -80° C., and were grown overnight at 37° C. in Mueller Hinton Broth (MHB, BD Singapore) prior to experiments. Fungus was grown overnight at 22° C. in Yeast Mold Broth (YMB, BD Singapore). […] The plates were incubated at 37° C. for 24 h with constant shaking speed at 300 rpm. […] Medium solution containing microbial cells alone were used as control (100% microbial growth). The assay was performed in four replicates and the experiments were repeated at least two times.

[4] = tested on: Escherichia coli (ATCC 8739, Gram-negative); experiment: as above; type: cell-based; conditions: 24 h, lowest concentration with no visible growth
Protocol: as §1

[5] = tested on: Staphylococcus aureus (ATCC 6538, Gram-positive); experiment: as above; type: cell-based; conditions: 24 h, lowest concentration with no visible growth
Protocol: as §1

[6] = tested on: Candida albicans; experiment: Killing efficacy of selected oligomers at 62 μg/ml (FIG. 1); type: cell-based
[7] = tested on: Candida albicans (ATCC 10231, fungus); experiment: Minimum inhibitory concentration, microdilution assay; type: cell-based
Protocol: as §1, with “The plates were incubated at 37° C. for 24 h with constant shaking speed at 300 rpm.” left out

[8] = tested on: C. albicans; experiment: Checkerboard assay of oligomers with triazoles (FIC); type: cell-based; conditions: Candida albicans
Protocol: […]. […] A row and a column in which a serial dilution of each agent was present alone were also prepared for MIC test. Then each solution in the well plate was inoculated with 100 μL of logarithmically grown 10^6 cells/ml C. albicans cells in the 96-well plate. The plate also contained a column with C. albicans only as control (100% cell growth). The cells were incubated at room temperature for 24 h with constant shaking, after which cell growth (i.e. the O.D. at 600 nm) was monitored with a microplate reader (TECAN) Synergy between fluconazole and oligomers was determined by calculating the fractional inhibitory concentration index ([…] was calculated as follows: FIC=(MIColigomer A in combination/MIColigomer A alone)+(MICazole B in combination/MICazole B alone). […] The interaction of selected oligomers with other triazoles such as itraconazole and voriconazole was also investigated using the checkerboard dilution method. For comparison, the interaction of the selected oligomer with a non-triazole antifungal agent […] was also investigated.

[9] = tested on: Staphylococcus aureus; experiment: Percentage growth after 24 hours with norfloxacin, IDPBX8 and 1:1 mixture (FIG. 2a); type: cell-based; conditions: IDPBX8 combined with norfloxacin, 1:1 weight ratio
[10] = tested on: mouse red blood cells (RBCs); experiment: Hemolysis study; type: cell-based; conditions: oligomer concentration giving 10% hemolysis, 1 h, 37° C.
Protocol: After 1 h incubation at 37° C., the mixture was centrifuged at 2000 rpm for 5 min. Aliquots (100 μl) of the supernatant were transferred to a 96-well plate. Hemolytic activity was determined as a function of hemoglobin release by measuring absorbance of the supernatant at 576 nm using a microplate reader. A control solution that contained only PBS was used as a reference for 0% hemolysis. Absorbance of red blood cells lysed with 0.5% Triton-X was taken as 100% hemolysis. The oligomer concentration which results in 10% hemolysis is indicated as HC10 in Table 1. The data were expressed as mean and S.D. of four replicates. % Hemolysis=[OD576 nm (polymer)−OD576 nm (PBS)]/[OD576 nm (Triton-X)−OD576 nm (PBS)]×100%

[11] = tested on: C. albicans; experiment: Growth of C. albicans with IDPBX8, fluconazole or combination (OD600, colony counting; FIG. 2b, 2c)

## CCCCCCCC[n+]1ccn(Cc2ccc(C[N+]34CC[N+](C/C=C/C[N+]56CC[N+](Cc7ccc(Cn8cc[n+](CCCCCCCC)c8)cc7)(CC5)CC6)(CC3)CC4)cc2)c1.[Br-].[Br-].[Br-].[Br-].[Br-].[Br-] [IDPBX8]
[1]
  CMC: 1456 µg/mL
[2]; 36 consecutive days of treatment
  Resistance developed by C. albicans: no significant resistance was developed
[2]; grown at 1/4 MIC
  MICs over the entire 36 passages: relatively stable
[3]
  MIC P.A.: 62 µg/mL
[4]
  MIC E.C.: 31 µg/mL
[5]
  MIC S.A.: 16 µg/mL
[6]; 62 μg/ml, after 24 h treatment
  Killing: 99%
[6]; 62 μg/ml, after 48 h
  Killing: 99.99%
[6]; IDPBX8 compared with IIDPPBX8
  Killing kinetics: kills faster
[7]; Candida albicans ~10^6 CFU/ml, YMB, room temperature, no visible growth
  MIC C.A.: 8 to 31 µg/mL
[7]; Candida albicans, concentration inhibiting 50% fungal growth
  MIC50 C.A. (value in brackets): (2-8) μg/ml
[8]
  Interaction when applied together with voriconazole: Synergy
[8]; calculated from lowest concentration inhibiting at least 50% growth
  FIC with Fluconazole: 0.38
[8]; oligomer alone
  Alone MIC50 component A: 8 µg/mL
[8]; oligomer in combination with Fluconazole
  Combined MIC50 component A: 1 µg/mL
[8]; oligomer in combination with Itraconazole
  Combined MIC50 component A: 1 µg/mL
[8]; oligomer in combination with Voriconazole
  Combined MIC50 component A: 2 µg/mL
[8]; oligomer with Fluconazole (Table 2)
  FIC: 0.38
[8]; oligomer with Itraconazole
  FIC: 0.62
[8]; oligomer with Voriconazole
  FIC: 0.31
[9]
  Efficacy of combination versus single agents: did not show improved efficacy
[10]
  HC10: >2000 µg/mL
[11]
  Total concentration of the combination at which killing effect was observed: 2 µg/mL
[11]; IDPBX8 combined with fluconazole, 1:1 weight ratio, 24 h
  Activity of combination versus single agents: higher activity than each compound/medicine used alone

## OC(Cn1cncn1)(Cn1cncn1)c1ccc(F)cc1F [Fluconazole, fluconazole, reference compound]
[2]; grown at 1/4 MIC, 31th passage
  MIC increase by the 31th passage: 8 times of the original MIC
[6]; 62 μg/ml, 24 h
  Number of surviving C. albicans after 24 h treatment compared with control: significantly less than the untreated control
[6]; 62 μg/ml, survivors at 24 h compared with 0 h
  Fungistatic or fungicidal: fungistatic rather than fungicidal
[7]; ATCC10231, Candida albicans ~10^6 CFU/ml, YMB, room temperature, no visible growth
  MIC: 2 to 4 µg/mL (≈ 6.53 to 13.1 µM)
[8]; triazole alone, read-out: Alone MIC50 component B
  MIC50: 4 µg/mL
[8]; triazole alone
  Alone MIC50 component B: 2 µg/mL
[8]; triazole in combination with IDPBX8
  Combined MIC50 component B: 0.5 µg/mL
[8]; triazole in combination with IDPPX8
  Combined MIC50 component B: 0.25 µg/mL
[8]; triazole in combination with IIDPPBX8
  Combined MIC50 component B: 2 µg/mL
